{"source": "patent US20090105260A1", "about": "“Molecules to Enhance Percutaneous Delivery and Methods for Discovery Therefor” (priority 2005, published 2009)", "test_system": "porcine skin (ER); EpiDerm™ normal human derived epidermal keratinocytes (IP)", "test": "ER/IP: skin conductivity enhancement ratio (INSIGHT apparatus) divided by irritation potential (EpiDerm MTT viability)", "set-up": "species or system Yorkshire pigs; human", "details": "EpiDerm and INSIGHT apparatus, procedures of Examples 1 and 2; FIG. 32 left-hand panel", "protocol": "Formulations containing 1.5% (wt/vol) of each CPE were prepared in a 1:1 EtOH:PBS (ethanol:phosphate buffered saline) solvent.\nIrritation potential of formulations was estimated using EpiDerm™ (MatTek Corporation, Ashland, Mass. www.mattek.com), a cell culture of normal human derived epidermal keratinocytes. EpiDerm™ cultures were stored and handled according to the standard protocol MTT-ET-50 supplied by MatTek Corporation. To study the effect of the test formulations on cell viability, cell cultures were exposed to 10 μl of the test formulation consisting of 1.5% (wt/vol) of each CPE in a 1:1 EtOH:PBS solvent for 4 hours. Each test formulation was analyzed in duplicate. The cell cultures were then handled as per the MTT-ET-50 protocol. The optical absorbance data from the extracted samples was then used to calculate the percentage cell viability as recommended in the protocol. Based on the cell viability, the irritation potential, IP, was defined as follows:\n1% (wt/vol) Triton X-100 dissolved in water was used as the positive control and 1:1 PBS:EtOH was used as negative control. […]\nEnhancement ratios were measured using an apparatus (the INSIGHT apparatus) which consisted of a polycarbonate plate that served as the receptor plate and a Teflon® plate that served as the donor plate. […]\nSkin impedance in each well was recorded using two electrodes. […]"}
{"smiles": "C=C(C)C(=O)OCCCCCCCCCCCCCCCCCC", "note": "[SM, stearyl methacrylate]", "values": [{"measurement": "FP/IPDescriptor (ER/IP determined experimentally) relative to oleic acid", "result": "about 3 times"}]}
